Experiment in all cases: biochemical
Common to all, as to parameters: KINOMEscan competition binding, DNA-tagged kinase against immobilised ligand, qPCR read-out
Settings in all cases: read-out: Percent Control
(Real-time PCR tracks product formation cycle by cycle.)

For one assay, the target named is PLK1 (Homo sapiens, UniProt P53350). As for the experimental part:
(§1) The KINOMEscan^TM kinase assays[65] were performed by Eurofins DiscoverX Corporation. For each kinase, the assay relies on the ability of the tested compound to compete against an immobilised ligand for binding to the DNA-tagged kinase. RT-qPCR is then used to measure the quantity of kinase molecules bound to the immobilised ligand, which is decreased if the tested compound competed with the kinase-ligand interaction. An 11-point 3-fold serial dilution of IDX compound was prepared in 100% DMSO at 100× final test concentration and subsequently diluted to 1× in the assay. […]

A further assay concerns the target PIP4K2B (Homo sapiens, UniProt P78356). How it is done:
as §1

A further assay concerns the target MUSK (Homo sapiens, UniProt O15146). How it is done: as §1
The target in a further assay is SRPK3 (Homo sapiens, UniProt Q9UPE1). As for the experimental part: as §1
A further assay has as its target HIPK3 (Homo sapiens, UniProt Q9H422). How it is done: as §1
The target in the next assay is NEK4 (Homo sapiens, UniProt P51957). As for the experimental part:
as §1

The next assay addresses NEK5 (Homo sapiens, UniProt Q6P3R8). As for the experimental part: as §1
The target of the next assay is MYLK4 (Homo sapiens, UniProt Q86YV6). As for the experimental part:
as §1

In a further assay the target is RET (Homo sapiens, UniProt P07949). As for the experimental part:
as §1

For a further assay, the target named is CDK17 (Homo sapiens, UniProt Q00537). As for the experimental part:
as §1

The next assay addresses ANKK1 (Homo sapiens, UniProt Q8NFD2). How it is done: as §1
Another assay addresses WEE2 (Homo sapiens, UniProt P0C1S8). As for the experimental part:
as §1

For a further assay, the target named is EPHA4 (Homo sapiens, UniProt P54764). As for the experimental part: as §1
In the next assay the target is MAP2K7 (Homo sapiens, UniProt O14733). How it is done: as §1
The target of a further assay is AKT1 (Homo sapiens, UniProt P31749). As for the experimental part:
as §1

The next assay concerns the target MAST1 (Homo sapiens, UniProt Q9Y2H9). How it is done: as §1
In the next assay the target is SBK1 (Homo sapiens, UniProt Q52WX2). How it is done:
as §1

The target of assay [1] is T1, JAK3(JH1domain-catalytic) (Homo sapiens, UniProt P52333).
T1 construct: JH1 domain catalytic
How it is done:
as §1

For the next assay, the target named is PIP5K1A (Homo sapiens, UniProt Q99755). How it is done:
as §1

The next assay deals with MET (Homo sapiens, UniProt P08581). How it is done: as §1

SMILES strings stand for the structures.

CDK17, sequence (Q00537 whole entry): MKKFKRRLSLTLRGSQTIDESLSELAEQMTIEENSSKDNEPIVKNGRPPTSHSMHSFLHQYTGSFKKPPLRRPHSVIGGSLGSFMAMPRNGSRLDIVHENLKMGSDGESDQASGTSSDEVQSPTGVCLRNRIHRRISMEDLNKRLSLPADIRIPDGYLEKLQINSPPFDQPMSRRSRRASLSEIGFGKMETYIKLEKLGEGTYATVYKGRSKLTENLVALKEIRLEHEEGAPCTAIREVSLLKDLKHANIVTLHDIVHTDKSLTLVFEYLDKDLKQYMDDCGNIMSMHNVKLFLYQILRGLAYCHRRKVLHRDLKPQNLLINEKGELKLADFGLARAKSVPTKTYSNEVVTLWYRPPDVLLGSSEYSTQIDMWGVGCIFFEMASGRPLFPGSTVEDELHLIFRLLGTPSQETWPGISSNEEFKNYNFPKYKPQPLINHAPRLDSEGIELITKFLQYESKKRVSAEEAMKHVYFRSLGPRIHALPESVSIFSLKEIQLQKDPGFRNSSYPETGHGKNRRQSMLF
T1 sequence (P52333 whole entry, the tested form may be a part): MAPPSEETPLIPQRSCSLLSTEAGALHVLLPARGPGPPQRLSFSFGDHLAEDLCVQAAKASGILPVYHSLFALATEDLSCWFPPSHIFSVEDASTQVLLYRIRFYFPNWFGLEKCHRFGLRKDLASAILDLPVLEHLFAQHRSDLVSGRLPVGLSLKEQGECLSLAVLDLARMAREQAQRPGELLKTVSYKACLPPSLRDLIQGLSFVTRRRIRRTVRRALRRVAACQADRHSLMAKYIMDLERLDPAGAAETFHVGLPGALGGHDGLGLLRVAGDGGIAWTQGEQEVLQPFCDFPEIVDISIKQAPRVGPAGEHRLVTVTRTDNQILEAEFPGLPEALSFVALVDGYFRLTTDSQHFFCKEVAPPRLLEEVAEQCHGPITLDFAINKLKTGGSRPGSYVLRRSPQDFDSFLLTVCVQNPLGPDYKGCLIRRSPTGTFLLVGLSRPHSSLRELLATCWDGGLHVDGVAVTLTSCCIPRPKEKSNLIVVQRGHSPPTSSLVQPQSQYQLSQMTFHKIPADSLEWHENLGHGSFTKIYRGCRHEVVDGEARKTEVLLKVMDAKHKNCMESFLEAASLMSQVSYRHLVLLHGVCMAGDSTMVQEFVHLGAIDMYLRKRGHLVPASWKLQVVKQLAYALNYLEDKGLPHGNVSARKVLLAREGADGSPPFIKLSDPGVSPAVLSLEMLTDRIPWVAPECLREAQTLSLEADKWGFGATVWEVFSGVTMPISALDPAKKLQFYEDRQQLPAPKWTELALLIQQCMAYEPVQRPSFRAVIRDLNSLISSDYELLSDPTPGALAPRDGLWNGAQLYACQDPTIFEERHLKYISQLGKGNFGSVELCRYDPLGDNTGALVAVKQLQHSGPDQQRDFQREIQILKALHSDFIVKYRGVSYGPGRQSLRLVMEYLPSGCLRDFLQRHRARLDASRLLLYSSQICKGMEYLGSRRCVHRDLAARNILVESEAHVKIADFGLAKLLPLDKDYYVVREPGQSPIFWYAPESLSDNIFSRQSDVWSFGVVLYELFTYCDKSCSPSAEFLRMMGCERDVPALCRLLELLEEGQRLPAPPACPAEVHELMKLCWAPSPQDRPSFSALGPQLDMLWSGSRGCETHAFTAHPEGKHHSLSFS
NEK4, sequence (P51957 whole entry): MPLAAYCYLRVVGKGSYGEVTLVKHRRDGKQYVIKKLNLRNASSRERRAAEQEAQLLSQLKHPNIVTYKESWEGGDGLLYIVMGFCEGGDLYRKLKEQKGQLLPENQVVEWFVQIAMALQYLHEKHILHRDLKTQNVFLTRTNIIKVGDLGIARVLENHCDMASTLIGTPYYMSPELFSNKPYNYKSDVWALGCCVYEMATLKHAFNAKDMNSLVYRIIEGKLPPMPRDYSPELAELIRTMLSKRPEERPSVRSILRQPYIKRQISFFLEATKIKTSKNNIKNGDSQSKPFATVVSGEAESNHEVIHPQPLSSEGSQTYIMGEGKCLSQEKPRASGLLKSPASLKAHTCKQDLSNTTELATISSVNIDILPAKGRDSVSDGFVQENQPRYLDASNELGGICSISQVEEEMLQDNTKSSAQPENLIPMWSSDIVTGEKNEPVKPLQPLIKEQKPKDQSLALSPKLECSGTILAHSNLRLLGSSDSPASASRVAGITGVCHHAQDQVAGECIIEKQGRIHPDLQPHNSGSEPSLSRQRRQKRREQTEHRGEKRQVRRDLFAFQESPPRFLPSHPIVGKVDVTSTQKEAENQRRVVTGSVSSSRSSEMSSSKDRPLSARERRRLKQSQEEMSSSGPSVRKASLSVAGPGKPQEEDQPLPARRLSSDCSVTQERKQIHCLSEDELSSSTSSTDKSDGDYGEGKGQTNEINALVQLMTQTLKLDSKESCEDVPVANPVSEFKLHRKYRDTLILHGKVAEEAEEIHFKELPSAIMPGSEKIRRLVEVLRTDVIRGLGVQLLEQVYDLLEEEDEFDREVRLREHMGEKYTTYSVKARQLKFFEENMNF
SRPK3, sequence (Q9UPE1 whole entry): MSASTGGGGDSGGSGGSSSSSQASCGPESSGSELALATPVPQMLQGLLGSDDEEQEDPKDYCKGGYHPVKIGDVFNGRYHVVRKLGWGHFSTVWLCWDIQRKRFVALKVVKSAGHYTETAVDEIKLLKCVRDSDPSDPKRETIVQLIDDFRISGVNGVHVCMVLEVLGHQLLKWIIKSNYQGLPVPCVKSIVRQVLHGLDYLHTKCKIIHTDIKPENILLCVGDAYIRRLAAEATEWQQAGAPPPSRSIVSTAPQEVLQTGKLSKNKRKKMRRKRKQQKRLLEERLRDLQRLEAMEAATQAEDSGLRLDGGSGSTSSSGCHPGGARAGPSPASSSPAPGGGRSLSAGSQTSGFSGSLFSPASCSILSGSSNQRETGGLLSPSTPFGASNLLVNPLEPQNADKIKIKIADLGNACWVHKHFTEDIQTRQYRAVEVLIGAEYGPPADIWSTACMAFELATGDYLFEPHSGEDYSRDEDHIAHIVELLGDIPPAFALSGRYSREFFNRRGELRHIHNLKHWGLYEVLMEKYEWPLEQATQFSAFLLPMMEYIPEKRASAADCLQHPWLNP
MET, sequence (P08581 whole entry): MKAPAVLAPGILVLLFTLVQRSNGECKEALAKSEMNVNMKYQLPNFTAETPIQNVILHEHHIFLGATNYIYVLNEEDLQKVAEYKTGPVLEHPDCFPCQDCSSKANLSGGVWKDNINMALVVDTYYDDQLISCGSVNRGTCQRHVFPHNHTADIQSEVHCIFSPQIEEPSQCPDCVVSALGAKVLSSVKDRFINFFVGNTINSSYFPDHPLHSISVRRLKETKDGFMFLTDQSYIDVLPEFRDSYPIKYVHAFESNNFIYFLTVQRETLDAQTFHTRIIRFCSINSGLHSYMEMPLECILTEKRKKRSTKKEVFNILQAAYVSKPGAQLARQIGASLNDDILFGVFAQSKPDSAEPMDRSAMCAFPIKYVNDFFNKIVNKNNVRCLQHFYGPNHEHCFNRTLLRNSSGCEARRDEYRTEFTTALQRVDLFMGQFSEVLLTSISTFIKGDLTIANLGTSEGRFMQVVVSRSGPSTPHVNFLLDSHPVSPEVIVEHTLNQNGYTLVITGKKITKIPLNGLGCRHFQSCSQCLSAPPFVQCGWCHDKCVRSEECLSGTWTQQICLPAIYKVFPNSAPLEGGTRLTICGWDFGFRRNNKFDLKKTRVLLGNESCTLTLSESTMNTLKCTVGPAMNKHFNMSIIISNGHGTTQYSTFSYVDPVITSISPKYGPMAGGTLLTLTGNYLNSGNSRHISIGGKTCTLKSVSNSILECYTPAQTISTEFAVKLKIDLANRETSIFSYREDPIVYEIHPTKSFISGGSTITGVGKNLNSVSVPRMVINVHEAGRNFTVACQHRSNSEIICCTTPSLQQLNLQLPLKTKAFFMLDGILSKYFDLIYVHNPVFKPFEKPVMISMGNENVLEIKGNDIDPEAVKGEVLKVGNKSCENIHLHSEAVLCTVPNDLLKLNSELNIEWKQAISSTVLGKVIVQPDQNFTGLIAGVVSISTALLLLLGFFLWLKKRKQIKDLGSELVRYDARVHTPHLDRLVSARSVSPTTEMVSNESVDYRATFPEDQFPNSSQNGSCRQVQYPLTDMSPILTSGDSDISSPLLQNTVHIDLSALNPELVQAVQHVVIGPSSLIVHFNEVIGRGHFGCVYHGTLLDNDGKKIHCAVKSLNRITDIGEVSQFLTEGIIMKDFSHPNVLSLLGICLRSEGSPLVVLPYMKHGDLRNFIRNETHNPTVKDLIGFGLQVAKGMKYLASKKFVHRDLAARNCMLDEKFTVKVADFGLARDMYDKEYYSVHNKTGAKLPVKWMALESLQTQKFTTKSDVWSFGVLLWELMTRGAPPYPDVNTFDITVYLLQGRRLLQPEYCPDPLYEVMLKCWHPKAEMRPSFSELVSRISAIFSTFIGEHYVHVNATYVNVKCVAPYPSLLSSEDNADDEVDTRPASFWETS
AKT1, sequence (P31749 whole entry): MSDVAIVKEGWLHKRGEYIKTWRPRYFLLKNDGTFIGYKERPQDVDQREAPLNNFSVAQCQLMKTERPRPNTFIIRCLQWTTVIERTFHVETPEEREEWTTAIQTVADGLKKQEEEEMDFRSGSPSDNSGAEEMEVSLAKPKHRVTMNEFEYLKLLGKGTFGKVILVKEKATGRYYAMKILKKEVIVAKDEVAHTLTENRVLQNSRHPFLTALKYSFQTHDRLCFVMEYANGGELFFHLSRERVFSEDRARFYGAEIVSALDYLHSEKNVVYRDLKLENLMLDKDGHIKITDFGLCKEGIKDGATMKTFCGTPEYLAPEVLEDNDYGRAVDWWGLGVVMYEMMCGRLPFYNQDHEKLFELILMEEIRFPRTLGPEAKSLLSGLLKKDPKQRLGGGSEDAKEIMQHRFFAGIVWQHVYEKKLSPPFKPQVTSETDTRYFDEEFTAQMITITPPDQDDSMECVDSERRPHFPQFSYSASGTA

As for `Oc1ccc(C2=Cc3ccc(O)cc3OC2)cc1` [compound 1, idronoxil], the remaining binding at 10 µM was found to be 77% at PLK1; 100% at PIP4K2B; 89% at MUSK; 94% on SRPK3; 33% on HIPK3; 98% at NEK4. Besides, the remaining binding at 10 µM at NEK5 is 89%; at MYLK4 it was 26%; on RET, 96%; on CDK17, 97%; on ANKK1, 66%; at WEE2, 95%. Besides, the remaining binding at 10 µM at EPHA4 came out at 84%; on MAP2K7, 91%; on AKT1, 75%; on MAST1, 93%; on SBK1, 91%; in assay [1], 52%. Besides, the remaining binding at 10 µM on PIP5K1A stood at 75%; on MET, 81%.

The values are drawn from paper PMC10507085, “Pharmacological inhibition of TBK1/IKKε blunts immunopathology in a murine model of SARS-CoV-2 infection” (Nature Communications, 2023).
